This passage reports inhibition, Ki and IC50 results from article PMC7072302 (Biomolecules, 2020).

For the assay, the target named is T1, tyrosinase (Agaricus bisporus, UniProt C7FF04).
T1 construct: purchased Sigma-Aldrich T3824
The assay is described as follows: Tyrosinase enzymatic assay (L-tyrosine substrate, absorbance at 475 nm). The format is biochemical. To be noted: for inhibition at 100 µM: compound concentration 100 μM, L-tyrosine substrate, triplicate, mean ± SD, read-out: Inhibition Rate (%) at 100 μM; for Ki: Dixon plot, read-out: Ki (inhibition constant); for IC50: concentrations 3.1 to 100 μM, mean ± SD (n = 3).

T1 sequence (C7FF04 1-392 limits assumed): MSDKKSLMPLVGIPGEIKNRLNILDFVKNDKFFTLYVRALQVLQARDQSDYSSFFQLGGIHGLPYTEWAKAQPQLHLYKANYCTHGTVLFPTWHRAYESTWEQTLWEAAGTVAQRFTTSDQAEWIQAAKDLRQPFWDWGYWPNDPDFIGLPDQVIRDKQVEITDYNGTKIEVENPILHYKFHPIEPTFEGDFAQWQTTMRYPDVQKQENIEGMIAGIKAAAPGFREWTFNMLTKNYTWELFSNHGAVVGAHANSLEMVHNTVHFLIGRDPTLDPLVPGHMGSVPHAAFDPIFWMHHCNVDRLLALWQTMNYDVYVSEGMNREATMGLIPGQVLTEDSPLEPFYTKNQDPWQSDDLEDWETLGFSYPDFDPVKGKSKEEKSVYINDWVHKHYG

Usually inhibition stands for the percentage by which the read-out fell short of the control. For the compound `O=c1c(O[C@@H]2O[C@H](CO)[C@@H](O)[C@H](O)[C@H]2O)c(-c2ccc(O)c(O)c2)oc2cc(O)cc(O)c12` [Compound 4, isoquercitrin], the inhibition at 100 µM was 1.8 ± 5.9%.

For the compound `COc1cc(C(=O)O)cc(OC)c1O` [Compound 3, syringic acid], the inhibition at 100 µM is 11.6 ± 0.1%.

By Ki is commonly meant a dissociation constant, usually derived from enzyme kinetics or from competition with a known ligand. As usually defined, the IC50 is the concentration needed to halve the response being measured. Lower therefore signals greater potency. For `COc1cc(C(=O)OCCCCNC(=N)N)cc(OC)c1O` [Compound 2, leonurine], the Ki stood at 11.4 µM, the inhibition at 100 µM is above 80% and the IC50 was 12.4 ± 0.8 µM.

On to `COc1cc(C(=O)OCCCCN=C(N)N)cc(OC)c1OC` [Compound 1, 10-methoxy-leonurine], for which the Ki was 1.6 µM, the inhibition at 100 µM was above 80% and half-maximal inhibition (IC50) was put at 7.4 ± 0.4 µM.
